Experimental findings from patent US10738056B2 (Aduro BioTech, Inc., priority 2017, dated 2020) are described below.

In assay [1] the target is Human cGAS amino acids 155-522 (Homo sapiens (Human), UniProt Q8N884). Description: cGAS biochemical activity assay (ATP remaining, Kinase-Glo Max luminescence). As to conditions: human cGAS 155-522, ATP remaining (Kinase-Glo Max); read-out: cGAS IC50. (In general: In Kinase-Glo more light means more ATP remaining.)
Assay [2] relates to cGAS/STING pathway in THP1 cells. Description: THP1 cell-based cGAS/STING pathway activity assay (IRF-3-linked luciferase reporter). As to conditions: Homo sapiens, THP-1. In short, it runs like this:
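THP1 cells carrying an IRF-3-driven luciferase reporter were read across a range of compound concentrations, and IC50 values were derived from these concentration responses; the assay upper limit was 100 μM.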
A general note: A reporter such as luciferase makes a cellular process visible.

Chain of Human cGAS amino acids 155-522 (Q8N884 157-522): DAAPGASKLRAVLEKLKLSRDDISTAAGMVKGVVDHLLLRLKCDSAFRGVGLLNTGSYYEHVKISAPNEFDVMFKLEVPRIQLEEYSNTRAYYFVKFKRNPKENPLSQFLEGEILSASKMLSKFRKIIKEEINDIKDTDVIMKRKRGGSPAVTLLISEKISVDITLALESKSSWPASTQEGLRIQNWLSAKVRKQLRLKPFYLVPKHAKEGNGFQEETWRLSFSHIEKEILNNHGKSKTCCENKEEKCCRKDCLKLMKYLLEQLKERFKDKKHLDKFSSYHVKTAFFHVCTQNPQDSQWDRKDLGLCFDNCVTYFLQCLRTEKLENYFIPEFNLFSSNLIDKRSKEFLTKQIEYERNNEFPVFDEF

The term IC50 denotes the concentration needed to halve the response being measured. For `COc1cccc(S(=O)(=O)NC(=O)c2c(C)[nH]c3c(-c4ccccc4)c(C(F)(F)F)nn3c2=O)c1` [Compound A1125, N-((3-methoxyphenyl)sulfonyl)-5-methyl-7-oxo-3-phenyl-2-(trifluoromethyl)-4,7-dihydropyrazolo[1,5-a]pyrimidine-6-carboxamide], the 50% inhibitory concentration (IC50) in assay [1] was less than 20 µM; in assay [2], 20 to 100 µM.

On to `Cc1[nH]c2c(-c3ccccc3)c(C(F)(F)F)nn2c(=O)c1C(=O)NS(=O)(=O)c1ccccc1Cl` [Compound A1127, N-((2-chlorophenyl)sulfonyl)-5-methyl-7-oxo-3-phenyl-2-(trifluoromethyl)-4,7-dihydropyrazolo[1,5-a]pyrimidine-6-carboxamide], for which the IC50 is less than 20 µM in assay [1] and 20 to 100 µM in assay [2].

On to `Cc1[nH]c2c(-c3ccccc3)c(C(F)(F)F)nn2c(=O)c1C(=O)NS(=O)(=O)c1cccc(C#N)c1` [Compound A1128, N-((3-cyanophenyl)sulfonyl)-5-methyl-7-oxo-3-phenyl-2-(trifluoromethyl)-4,7-dihydropyrazolo[1,5-a]pyrimidine-6-carboxamide], for which the half-maximal inhibitory concentration (IC50) in assay [1] was less than 20 µM; in assay [2], greater than 100 µM.

With `COc1cccc(CS(=O)(=O)NC(=O)c2c(C)[nH]c3c(-c4ccccc4)c(C(F)(F)F)nn3c2=O)c1` [Compound A1132, N-((3-methoxybenzyl)sulfonyl)-5-methyl-7-oxo-3-phenyl-2-(trifluoromethyl)-4,7-dihydropyrazolo[1,5-a]pyrimidine-6-carboxamide], the figures for the IC50 in assay [1] and in assay [2] were less than 20 µM and 20 to 100 µM, respectively.

As to `COc1cccc(NC(=O)c2c(C)[nH]c3c(-c4ccccc4)c(C(F)(F)F)nn3c2=O)c1Cl` [Compound A1135, N-(2-chloro-3-methoxyphenyl)-5-methyl-7-oxo-3-phenyl-2-(trifluoromethyl)-4,7-dihydropyrazolo[1,5-a]pyrimidine-6-carboxamide], the IC50 in assay [1] and in assay [2] was less than 20 µM throughout.

As to `COc1cccc(NC(=O)c2c(C)[nH]c3c(-c4ccccc4)c(C(F)(F)F)nn3c2=O)c1F` [Compound A1136, N-(2-fluoro-3-methoxyphenyl)-5-methyl-7-oxo-3-phenyl-2-(trifluoromethyl)-4,7-dihydropyrazolo[1,5-a]pyrimidine-6-carboxamide], the IC50 is less than 20 µM in assay [1] and 20 to 100 µM in assay [2].

With `COc1ccccc1NC(=O)Cc1c(C)[nH]c2c(-c3ccccc3)c(C(F)(F)F)nn2c1=O` [Compound B1010, N-(2-methoxyphenyl)-2-(5-methyl-7-oxo-3-phenyl-2-(trifluoromethyl)-4,7-dihydropyrazolo[1,5-a]pyrimidin-6-yl)acetamide], the half-inhibitory concentration (IC50) in assay [1] is 20 to 250 µM; in assay [2], 20 to 100 µM.

Regarding `COc1cccc(NC(=O)Cc2c(C)[nH]c3c(-c4ccccc4)c(C(F)(F)F)nn3c2=O)c1` [Compound B1011, N-(3-methoxyphenyl)-2-(5-methyl-7-oxo-3-phenyl-2-(trifluoromethyl)-4,7-dihydropyrazolo[1,5-a]pyrimidin-6-yl)acetamide], the IC50 lay in the range of 20 to 250 µM in assay [1] and 20 to 100 µM in assay [2].

As to `Cc1[nH]c2c(-c3ccccc3)c(C(F)(F)F)nn2c(=O)c1-c1nc2ccccc2[nH]1` [Compound C1005, 6-(1H-benzo[d]imidazol-2-yl)-5-methyl-3-phenyl-2-(trifluoromethyl)pyrazolo[1,5-a]pyrimidin-7(4H)-one], the figures for the IC50 in assay [1] and in assay [2] were 20 to 250 µM and greater than 100 µM, respectively.

For `CC(=O)Nc1cccc2nc(-c3c(C)[nH]c4c(-c5ccccc5)c(C(F)(F)F)nn4c3=O)[nH]c12` [Compound C1009, N-(2-(5-methyl-7-oxo-3-phenyl-2-(trifluoromethyl)-4,7-dihydropyrazolo[1,5-a]pyrimidin-6-yl)-1H-benzo[d]imidazol-7-yl)acetamide], the figures for the IC50 in assay [1] and in assay [2] were less than 20 µM and 20 to 100 µM, respectively.

As to `Cc1[nH]c2c(-c3ccccc3)c(C(F)(F)F)nn2c(=O)c1-c1ncc(C2CCCC2)o1` [Compound C1010, 6-(5-cyclopentyloxazol-2-yl)-5-methyl-3-phenyl-2-(trifluoromethyl)pyrazolo[1,5-a]pyrimidin-7(4H)-one], the IC50 in assay [1] was greater than 250 µM; in assay [2], less than 20 µM.

With `Cc1[nH]c2c(-c3ccccc3)c(C(F)(F)F)nn2c(=O)c1-c1nc2ccccc2o1` [Compound C1011, 6-(benzo[d]oxazol-2-yl)-5-methyl-3-phenyl-2-(trifluoromethyl)pyrazolo[1,5-a]pyrimidin-7(4H)-one], the figures for the IC50 in assay [1] and in assay [2] were greater than 250 µM and less than 20 µM, respectively.

As for `COc1ccc2oc(-c3c(C)[nH]c4c(-c5ccccc5)c(C(F)(F)F)nn4c3=O)nc2c1` [Compound C1012, 6-(5-methoxybenzo[d]oxazol-2-yl)-5-methyl-3-phenyl-2-(trifluoromethyl)pyrazolo[1,5-a]pyrimidin-7(4H)-one], the IC50 in assay [1] was greater than 250 µM; in assay [2], less than 20 µM.

Turning to `COCc1[nH]c2c(-c3ccccc3)c(C(F)(F)F)nn2c(=O)c1-c1ncc(C2CCCC2)o1` [Compound C1013, 6-(5-cyclopentyloxazol-2-yl)-5-(methoxymethyl)-3-phenyl-2-(trifluoromethyl)pyrazolo[1,5-a]pyrimidin-7(4H)-one], the IC50 in assay [1] was greater than 250 µM; in assay [2] it was less than 20 µM.

With `Cc1[nH]c2c(-c3ccccc3)c(C(F)(F)F)nn2c(=O)c1-c1nc2c(o1)CCCC2` [Compound C1015, 5-methyl-3-phenyl-6-(4,5,6,7-tetrahydrobenzo[d]oxazol-2-yl)-2-(trifluoromethyl)pyrazolo[1,5-a]pyrimidin-7(4H)-one], the IC50 was greater than 250 µM in assay [1] and less than 20 µM in assay [2].

In the case of `COc1ccc2[nH]c(-c3c(C)[nH]c4c(-c5ccccc5)c(C(F)(F)F)nn4c3=O)nc2c1` [Compound C1016, 6-(5-methoxy-1H-benzo[d]imidazol-2-yl)-5-methyl-3-phenyl-2-(trifluoromethyl)pyrazolo[1,5-a]pyrimidin-7(4H)-one], the IC50 in assay [1] and in assay [2] was less than 20 µM in each case.

`Cc1[nH]c2c(-c3ccccc3)c(C(F)(F)F)nn2c(=O)c1-c1nc2c([nH]1)CCCC2` [Compound C1017, 5-methyl-3-phenyl-6-(4,5,6,7-tetrahydro-1H-benzo[d]imidazol-2-yl)-2-(trifluoromethyl)pyrazolo[1,5-a]pyrimidin-7(4H)-one]: the IC50 in assay [1] is less than 20 µM; in assay [2] it was 20 to 100 µM.

Turning to `COc1cccc2[nH]c(-c3c(C)[nH]c4c(-c5ccccc5)c(C(F)(F)F)nn4c3=O)nc12` [Compound C1018, 6-(4-methoxy-1H-benzo[d]imidazol-2-yl)-5-methyl-3-phenyl-2-(trifluoromethyl)pyrazolo[1,5-a]pyrimidin-7(4H)-one], the IC50 was less than 20 µM in assay [1] and greater than 100 µM in assay [2].

Consider `Cc1[nH]c2c(-c3ccccc3)c(C(F)(F)F)nn2c(=O)c1-c1nc2ccccc2c(=O)[nH]1` [Compound C1019, 2-(5-methyl-7-oxo-3-phenyl-2-(trifluoromethyl)-4,7-dihydropyrazolo[1,5-a]pyrimidin-6-yl)quinazolin-4(3H)-one], for which the IC50 in assay [1] is less than 20 µM; in assay [2], 20 to 100 µM.

In the case of `Cc1nnc(-c2c(C)[nH]c3c(-c4ccccc4)c(C(F)(F)F)nn3c2=O)[nH]1` [Compound C1020, 5-methyl-6-(5-methyl-4H-1,2,4-triazol-3-yl)-3-phenyl-2-(trifluoromethyl)pyrazolo[1,5-a]pyrimidin-7(4H)-one], the IC50 in assay [1] is 20 to 250 µM; in assay [2] it was greater than 100 µM.

As to `COc1cccc2nc(-c3c(C)[nH]c4c(-c5ccccc5)c(C(F)(F)F)nn4c3=O)oc12` [Compound C1022, 6-(7-methoxybenzo[d]oxazol-2-yl)-5-methyl-3-phenyl-2-(trifluoromethyl)pyrazolo[1,5-a]pyrimidin-7(4H)-one], the IC50 in assay [1] is less than 20 µM; in assay [2], 20 to 100 µM.

For the compound `Cc1[nH]c2c(-c3ccccc3)c(C(F)(F)F)nn2c(=O)c1-c1nn(C(C)C)c(=O)o1` [Compound C1023, 3-isopropyl-5-(5-methyl-7-oxo-3-phenyl-2-(trifluoromethyl)-4,7-dihydropyrazolo[1,5-a]pyrimidin-6-yl)-1,3,4-oxadiazol-2(3H)-one], the 50% inhibitory concentration (IC50) was less than 20 µM in assay [1] and greater than 100 µM in assay [2].

Take `COc1cccc2nc(-c3c(C)[nH]c4c(-c5ccccc5)c(C(F)(F)F)nn4c3=O)[nH]c(=O)c12` [Compound C1024, 5-methoxy-2-(5-methyl-7-oxo-3-phenyl-2-(trifluoromethyl)-4,7-dihydropyrazolo[1,5-a]pyrimidin-6-yl)quinazolin-4(3H)-one]: the concentration for half-maximal inhibition (IC50) in assay [1] was less than 20 µM; in assay [2], 20 to 100 µM.

As to `COc1cccc2c(=O)[nH]c(-c3c(C)[nH]c4c(-c5ccccc5)c(C(F)(F)F)nn4c3=O)nc12` [Compound C1025, 8-methoxy-2-(5-methyl-7-oxo-3-phenyl-2-(trifluoromethyl)-4,7-dihydropyrazolo[1,5-a]pyrimidin-6-yl)quinazolin-4(3H)-one], the IC50 in assay [1] was less than 20 µM; in assay [2] it was greater than 100 µM.

With `COc1cccc2c(-c3c(C)[nH]c4c(-c5ccccc5)c(C(F)(F)F)nn4c3=O)n[nH]c12` [Compound C1026, 6-(7-methoxy-1H-indazol-3-yl)-5-methyl-3-phenyl-2-(trifluoromethyl)pyrazolo[1,5-a]pyrimidin-7(4H)-one], the figures for the IC50 in assay [1] and in assay [2] were 20 to 250 µM and less than 20 µM, respectively.

For `Cc1[nH]c2c(-c3ccccc3)c(C(F)(F)F)nn2c(=O)c1-c1ncc(C2CCCOC2)o1` (stereo not drawn) [Compound C1027, 5-methyl-3-phenyl-6-(5-(tetrahydro-2H-pyran-3-yl)oxazol-2-yl)-2-(trifluoromethyl)pyrazolo[1,5-a]pyrimidin-7(4H)-one], the IC50 in assay [1] was less than 20 µM; in assay [2] it was 20 to 100 µM.

For `Cc1[nH]c2c(-c3ccccc3)c(C(F)(F)F)nn2c(=O)c1-c1nc2ncccc2o1` [Compound C1030, 5-methyl-6-(oxazolo[4,5-b]pyridin-2-yl)-3-phenyl-2-(trifluoromethyl)pyrazolo[1,5-a]pyrimidin-7(4H)-one], the values for the IC50 in assay [1] and in assay [2] were less than 20 µM and greater than 100 µM, respectively.
